Assays:
PDLSCs [1] = test: Impedimetry (xCELLigence), concentration-response study; type: cell-based, human; conditions: 48-h incubation, 0.5 normalized CI
Description: To evaluate the concentration-dependent effects of the 3 antiseptic agents (H2O2, CHX, and ClO2), 9 different dilutions of each agent were prepared with growth medium (from 3.91 × 10^−6 to 10^−3 M, by 1:2 dilution in each step). As ClO2 is photosensitive and volatile, its dilution series were made in dark Eppendorf tubes which were opened only for the inevitably required time. After a 48-h-long incubation, cell viability was assessed by WST-1 test and impedimetric measurement, respectively (see below). The […] (IC50) values corresponding to the 50% viable cells or 0.5 normalized CI were determined from the concentration-effect curves in the case of the two methods, respectively.
The effect of irrigative agents on the viability of the PDLSC cells was assessed using the xCELLigence SP System (Roche Applied Science, Indianapolis, IN, USA), which monitors the cellular events by measuring electrical impedance across interdigitating gold microelectrodes integrated on the bottom of tissue culture plates (E-plates). The detected impedance is influenced by the viability and morphology of the attached cells on the surface of the electrodes. The presence of cells due to their insulating plasma membranes constrain the electrical current and lead to an increase in the electrode impedance. The impedance depends on the number of the attached cells and on the dimensional change of the attached cells on the electrodes. More cells attached to the electrode or spreading cause a larger increase in the impedance. The change in impedances represented as “cell index” (CI) which is a relative and dimensionless value. Briefly, the experimental protocol was as follows: to register the background value, 100 μL of culture medium was added to each well and impedance was recorded for 1 h to gain constant background curves of impedance. […] The viability of the PDLSC was monitored for 96 h. Normalized impedance to the control calculated by the integrated software (RTCA 1.2—Roche Applied Science, Indianapolis, IN, USA) was used for the statistical evaluation. […]

PDLSCs [2] = test: Impedimetry (xCELLigence), 10 min treatment, time course and viability; type: cell-based, human; conditions: for normalized Cell Index (CI) two days after the treatment: 37 °C; for viability of PDLSC cultures, impedimetry: 48 h
Description: The effect of irrigative agents on the viability of the PDLSC cells was assessed using the xCELLigence SP System (Roche Applied Science, Indianapolis, IN, USA), which monitors the cellular events by measuring electrical impedance across interdigitating gold microelectrodes integrated on the bottom of tissue culture plates (E-plates). The detected impedance is influenced by the viability and morphology of the attached cells on the surface of the electrodes. The presence of cells due to their insulating plasma membranes constrain the electrical current and lead to an increase in the electrode impedance. The impedance depends on the number of the attached cells and on the dimensional change of the attached cells on the electrodes. More cells attached to the electrode or spreading cause a larger increase in the impedance. The change in impedances represented as “cell index” (CI) which is a relative and dimensionless value. Briefly, the experimental protocol was as follows: to register the background value, 100 μL of culture medium was added to each well and impedance was recorded for 1 h to gain constant background curves of impedance. In the following step, PDLSCs were seeded in 10^5 cells/mL density. After 24-h incubation, they were treated with the solutions of the investigated irrigative compounds (H2O2, CHX, and ClO2) for 10 min and the medium served as reference. […] Normalized impedance to the control calculated by the integrated software (RTCA 1.2—Roche Applied Science, Indianapolis, IN, USA) was used for the statistical evaluation. Each data point represents the mathematical average of three parallels.

[3] = 0.3% H2O2, 0.02% CHX, 0.0025% and 0.00025% ClO2, 10 min treatment

SMILES: [O][Cl+][O-] [ClO2, chlorine dioxide]
- IC50 (PDLSCs [1]): 795 µM
- long-term (2–120 h) effect on normalized CI (PDLSCs [2]; [3]): consistent increase of the curves
- short-term (0–2 h) effect on normalized CI (PDLSCs [2]; [3]): significantly less toxic compared to the other two antiseptic substances
- repopulation in long-term impedimetric analysis (PDLSCs [2]; 5-day-long period after treatment): proliferation of the remaining cell population can compensate cell loss
- normalized Cell Index (CI) two days after the treatment (PDLSCs [2]; 10 minute treatment in 2.5 mg/l ClO2 solution): ≈ 0.8
- normalized Cell Index (CI) two days after the treatment (PDLSCs [2]; 10 minute treatment in 25 mg/l ClO2 solution): about 0.5
- viability of PDLSC cultures, impedimetry (PDLSCs [2]; P3, higher ClO2 concentration (0.0025%)): significant inhibitory effect
- viability of PDLSC cultures, impedimetry (PDLSCs [2]; P3 and P7, lower ClO2 concentration (0.00025%)): unequivocally neutral
- cells killed during the first 30 min (PDLSCs [2]; impedimetric results, 0.02% CHX, ClO2 depending on the concentration applied (0.0025%, 0.00025%)): 20–30%

— publication PMC8060220, “Comparative study of hyperpure chlorine dioxide with two other irrigants regarding the viability of periodontal ligament stem cells” (Clinical Oral Investigations, 2020)
